Data from patent publication US6448204B1, “Herbicidal 2-aryloxy-4-methyl-6-pyrazol-1-yl-pyridines” (BASF Aktiengesellschaft, priority 1999, dated 2002).

Tests used:
Assay type in all cases: in vivo
[1] = tested on: Zea mays (ZEAMX); assay: Pre-emergence test; details: pre-emergence, 0.100 kg/ha
Method: (§1) To evaluate their herbicidal activity, compounds according to the invention are tested using a representative range of plants: […] The pre-emergence tests involve spraying a liquid formulation of the compound onto the soil in which the seeds of the plant species mentioned above has recently been sown. The soil used in the tests is a prepared horticultural loam. […] In these tests untreated sown soil are used as controls.

[2] = tested on: Digitaria sanguinalis (DIGSA); assay: Pre-emergence test; details: 3 weeks after treatment
Method: as §1

[3] = tested on: Setaria viridis (SETVI); assay: Pre-emergence test; details: 3 weeks after treatment
Method: as §1

[4] = tested on: Ambrosia artemisifolia (AMBEL); assay: Pre-emergence test; details: 3 weeks after treatment
Method: as §1

[5] = tested on: Stellaria media (STEME); assay: Pre-emergence test; details: 3 weeks after treatment
Method: as §1

[6] = tested on: Ipomoea hederacea (IPOHE); assay: Pre-emergence test; details: 3 weeks after treatment
Method: as §1

[7] = tested on: Cassia obtusifolia (CASOB); assay: Pre-emergence test; details: 3 weeks after treatment
Method: as §1

[8] = tested on: Alopecurus myosuroides (ALOMY); assay: Pre-emergence test; details: 3 weeks after treatment
Method: as §1

[9] = tested on: Matricaria inodora (MATIN); assay: Pre-emergence test; details: 3 weeks after treatment
Method: as §1

[10] = tested on: Abutilon theophrasti (ABUTH); assay: Pre-emergence test; details: 3 weeks after treatment
Method: as §1

[11] = tested on: Echinochloa crus-galli (ECHCG); assay: Pre-emergence test; details: 3 weeks after treatment
Method: as §1

[12] = tested on: Lamium purpureum (LAMPU); assay: Pre-emergence test; details: 3 weeks after treatment
Method: as §1

[13] = tested on: thirteen weed species (broadleaf weeds and grasses); assay: Pre-emergence test, summary over all weeds; details: for Number of weed species well / sufficiently controlled: out of thirteen species
Method: as §1

[14] = tested on: weed species; assay: Post-emergence test, summary over all weeds
Method: To evaluate their herbicidal activity, compounds according to the invention are tested using a representative range of plants:
These acetone solutions are diluted with water and the resulting formulations applied at dosage levels equivalent of about 0.025 to 0.4 kg per hectare of test compound per pot. After spraying the plants are placed on greenhouse benches and are cared for in the usual manner, commensurate with conventional greenhouse practices. From 2 to 4 weeks after treatment, the seedling plants are examined and rated according to the rating system provided above.

- Selectivity in maize [1]: Good selectivity in maize
Structure (SMILES): Cc1cc(Oc2cc(C(F)(F)F)nn2C)nc(-n2ccc(C(F)(F)F)n2)c1 [Example 2, 4-methyl-2-(-3-trifluoromethyl-1H-prazol-1-yl)-6-(1-methyl-3-trifluoromethyl-pyrazol-5-yloxy)-pyridine]
- Assessment rating DIGSA (pre-emergence application) ([2]; 0.013 kg/ha): 9 (9 - Complete kill)
- Assessment rating DIGSA (pre-emergence application) ([2]; 0.025 kg/ha): 9 (9 - Complete kill)
- Assessment rating DIGSA (pre-emergence application) ([2]; 0.100 kg/ha): 9 (9 - Complete kill)
- Assessment rating DIGSA (pre-emergence application) ([2]; 0.400 kg/ha): 9 (9 - Complete kill)
- Assessment rating SETVI (pre-emergence application) ([3]; 0.013 kg/ha): 9 (9 - Complete kill)
- Assessment rating SETVI (pre-emergence application) ([3]; 0.025 kg/ha): 9 (9 - Complete kill)
- Assessment rating SETVI (pre-emergence application) ([3]; 0.100 kg/ha): 9 (9 - Complete kill)
- Assessment rating SETVI (pre-emergence application) ([3]; 0.400 kg/ha): 9 (9 - Complete kill)
- Assessment rating AMBEL (pre-emergence application) ([4]; 0.013 kg/ha): 4 (4 - Injury)
- Assessment rating AMBEL (pre-emergence application) ([4]; 0.025 kg/ha): 7 (7 - Good herbicidal effect)
- Assessment rating AMBEL (pre-emergence application) ([4]; 0.100 kg/ha): 8 (8 - Approaching complete kill)
- Assessment rating AMBEL (pre-emergence application) ([4]; 0.400 kg/ha): 9 (9 - Complete kill)
- Assessment rating STEME (pre-emergence application) ([5]; 0.013 kg/ha): 6 (6 - Herbicidal effect)
- Assessment rating STEME (pre-emergence application) ([5]; 0.025 kg/ha): 9 (9 - Complete kill)
- Assessment rating STEME (pre-emergence application) ([5]; 0.100 kg/ha): 9 (9 - Complete kill)
- Assessment rating STEME (pre-emergence application) ([5]; 0.400 kg/ha): 9 (9 - Complete kill)
- Assessment rating IPOHE (pre-emergence application) ([6]; 0.013 kg/ha): 1 (1 - Trace effect)
- Assessment rating IPOHE (pre-emergence application) ([6]; 0.025 kg/ha): 3 (3 - Moderate effect)
- Assessment rating IPOHE (pre-emergence application) ([6]; 0.100 kg/ha): 6 (6 - Herbicidal effect)
- Assessment rating IPOHE (pre-emergence application) ([6]; 0.400 kg/ha): 9 (9 - Complete kill)
- Assessment rating CASOB (pre-emergence application) ([7]; 0.013 kg/ha): 0 (0 - No effect)
- Assessment rating CASOB (pre-emergence application) ([7]; 0.025 kg/ha): 4 (4 - Injury)
- Assessment rating CASOB (pre-emergence application) ([7]; 0.100 kg/ha): 8 (8 - Approaching complete kill)
- Assessment rating CASOB (pre-emergence application) ([7]; 0.400 kg/ha): 9 (9 - Complete kill)
- Assessment rating ALOMY (pre-emergence application) ([8]; 0.013 kg/ha): 2 (2 - Slight effect)
- Assessment rating ALOMY (pre-emergence application) ([8]; 0.025 kg/ha): 5 (5 - Definite injury)
- Assessment rating ALOMY (pre-emergence application) ([8]; 0.100 kg/ha): 8 (8 - Approaching complete kill)
- Assessment rating ALOMY (pre-emergence application) ([8]; 0.400 kg/ha): 8 (8 - Approaching complete kill)
- Assessment rating MATIN (pre-emergence application) ([9]; 0.013 kg/ha): 7 (7 - Good herbicidal effect)
- Assessment rating MATIN (pre-emergence application) ([9]; 0.025 kg/ha): 8 (8 - Approaching complete kill)
- Assessment rating MATIN (pre-emergence application) ([9]; 0.100 kg/ha): 9 (9 - Complete kill)
- Assessment rating MATIN (pre-emergence application) ([9]; 0.400 kg/ha): 9 (9 - Complete kill)
- Assessment rating ABUTH (pre-emergence application) ([10]; 0.013 kg/ha): 1 (1 - Trace effect)
- Assessment rating ABUTH (pre-emergence application) ([10]; 0.025 kg/ha): 3 (3 - Moderate effect)
- Assessment rating ABUTH (pre-emergence application) ([10]; 0.100 kg/ha): 8 (8 - Approaching complete kill)
- Assessment rating ABUTH (pre-emergence application) ([10]; 0.400 kg/ha): 9 (9 - Complete kill)
- Assessment rating ECHCG (pre-emergence application) ([11]; 0.013 kg/ha): 1 (1 - Trace effect)
- Assessment rating ECHCG (pre-emergence application) ([11]; 0.025 kg/ha): 2 (2 - Slight effect)
- Assessment rating ECHCG (pre-emergence application) ([11]; 0.100 kg/ha): 8 (8 - Approaching complete kill)
- Assessment rating ECHCG (pre-emergence application) ([11]; 0.400 kg/ha): 8 (8 - Approaching complete kill)
- Assessment rating LAMPU (pre-emergence application) ([12]; 0.013 kg/ha): 8 (8 - Approaching complete kill)
- Assessment rating LAMPU (pre-emergence application) ([12]; 0.025 kg/ha): 8 (8 - Approaching complete kill)
- Assessment rating LAMPU (pre-emergence application) ([12]; 0.100 kg/ha): 9 (9 - Complete kill)
- Assessment rating LAMPU (pre-emergence application) ([12]; 0.400 kg/ha): 9 (9 - Complete kill)
- Herbicidal activity, overall judgement [13]: excellent activity on both broadleaf weeds and grasses
- Rate required to obtain the same level of weed control [13]: 0.100 kg/ha
- Number of weed species well / sufficiently controlled ([13]; 0.100 kg/ha): eleven out of thirteen species
- Number of weed species well / sufficiently controlled ([13]; 0.400 kg/ha): all of the thirteen weed species
- Number of weed species controlled ([14]; 0.100 kg/ha): twelve weed species
- Herbicidal activity, overall judgement ([14]; versus known compound of the prior art): clearly superior activity
